Measurements taken from US9656949B2, “Substituted carboxylic acid derivatives as aggrecanase inhibitors for the treatment of osteoarthritis” (MERCK PATENT GMBH, priority 2013, dated 2017).
Values after ≈ are worked out from the molar mass of the structure shown. Starred links: 1 amine or outer side, 2 acyl side, 3 side chain; linkers in the order of their positions; H or OH if unused. Non-standard residues stand in square brackets, D forms with d. Residues, ends and D or L forms follow the SMILES beside them. *: point of attachment. X1 = N[C@@H](CC(=O)[*:2])[C@H](Cc1ccccc1)N[*:1]; Isovaleryl = CC(C)CC(=O)*

Key:
Solubility pH7.4 = format: physicochemical; settings: pH 7.4, aqueous buffer
[1] = tested on: bovine cartilage explants; experiment: GAG-Assay (GAG release from bovine cartilage explants); format: cell-based; settings: Bos taurus, GAG release into supernatant, unit inferred
Protocol: The assay is based on bovine cartilage explants from the metacarpal joint (MCP) with a diameter of 4 mm and a thickness of 1-2 mm. Explants are freshly harvested at the day of slaughter. Before the start of the experiment, explants are incubated in DMEM medium+10% serum+30 μg/ml ascorbic acid for 48 h (200 μl). The pre-incubation is performed to enlarge the assay window. Explants are incubated at 37° C. and 7.5% CO2. The number of replicates for all groups is n=4.
Induction of cartilage degradation is induced by treatment of the explants with IL-1 alpha (10 ng/ml) in serum-free medium for 5 days. As negative control, explants are left untreated in serum-free DMEM medium. This control is not part of the baseline calculation but an internal control for the degree of degradation which is strictly dependent on the IL1-alpha quality. IL-1 alpha induces the activity of proteases such as ADAMTS-5 and MMPs which in turn degrade the matrix. Degradation products of the matrix (GAG: glycosaminoglycan) can be measured in the supernatant. The level of GAG release induced by IL1-alpha is defined as the 0% effect level. […] This DRC is the basis for the IC50 calculation.
IL-1 alpha and the ADAMTS-5 inhibitors are incubated for 5 days, then GAG is measured in the supernatant. The explants are digested with papain to determine the amount of GAG in the explants.
In order to investigate the effect of potential cathepsin D inhibitors on cartilage degradation, a pH-induced model based on bovine explants is used. The pH of the medium in which the explants are cultivated is matched here to the pathophysiological pH of an arthritic knee. This pH is pH 5.5. […] The amount of GAGs liberated can be determined quantitatively with the aid of DMMB (dimethylmethylene blue hydrochloride). If sulfated GAGs are detected using dimethylmethylene blue hydrochloride, the decrease in the absorption at 633 nm is utilised. […] In order to determine the concentration, a calibration line is also recorded using chondroitin sulfate. […]

[2] = target: T1, human recombinant AdamTS-5 (Homo sapiens, UniProt Q9UNA0); experiment: Biochemical activity testing of ADAMTS-5: aggrecan peptide cleavage assay (AlphaScreen); settings: 4.5 nM human recombinant AdamTS-5, biotinylated 43mer aggrecan peptide, 180 min at 37° C.; read-out: IC50 [ADAM-NTS5]M
T1 construct: purchased R&D systems, Wiesbaden, Germany
T1 sequence (Q9UNA0 262-930): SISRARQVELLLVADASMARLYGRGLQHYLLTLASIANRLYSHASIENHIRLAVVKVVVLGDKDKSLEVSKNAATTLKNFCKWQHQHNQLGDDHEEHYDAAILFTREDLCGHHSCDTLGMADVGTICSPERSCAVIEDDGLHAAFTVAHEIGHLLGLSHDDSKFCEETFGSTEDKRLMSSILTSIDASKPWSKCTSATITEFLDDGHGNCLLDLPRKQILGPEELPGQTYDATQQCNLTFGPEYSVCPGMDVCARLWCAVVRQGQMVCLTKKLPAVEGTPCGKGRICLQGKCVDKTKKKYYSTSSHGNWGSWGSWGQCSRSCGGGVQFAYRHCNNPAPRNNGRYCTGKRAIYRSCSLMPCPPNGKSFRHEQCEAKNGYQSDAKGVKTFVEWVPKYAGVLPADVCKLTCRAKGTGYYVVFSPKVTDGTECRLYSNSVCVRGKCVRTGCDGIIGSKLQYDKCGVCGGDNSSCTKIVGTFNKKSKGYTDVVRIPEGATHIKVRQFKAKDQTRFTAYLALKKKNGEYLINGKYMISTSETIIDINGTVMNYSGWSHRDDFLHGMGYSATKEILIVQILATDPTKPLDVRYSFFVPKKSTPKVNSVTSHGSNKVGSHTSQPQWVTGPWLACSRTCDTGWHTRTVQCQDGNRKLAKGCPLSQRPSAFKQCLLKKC
Protocol: ADAMTS-5 is a metallo protease with glutamyl-endoprotease activity and cleaves aggrecan core protein at E373-A374 in the interglobular domain. To fully analyse the inhibitory potential of compounds on AdamTS-5 activity an Alphascreen® assay with a biotinylated 43mer aggrecan oligopeptide as substrate was performed. Cleavage by ADAMTS-5 caused production of a neoepitop N-terminus ARGS at the C-terminal fragment. The detection of this product is performed with streptavidin-AlphaScreen® donor beads binding to the biotin label and an anti-neoepitop (“ARGSV”) antibody that anchors anti-mouse IgG-coated AlphaLisa® acceptor beads to the other end of the generated fragment. Thereby, donor and acceptor beads get in proximity and a luminescence Alphascreen® signal is generated via the release of singlet oxygen. The cleavage activity was detectable directly by the increase in Alphascreen® signal.
The aggrecan peptide cleavage assay was performed as 384 well AlphaScreen® (Perkin Elmer) assay format in Perkin Elmer 384 AlphaPlate (proxiplate) shallow well microtiter plates and was used for high throughput screen in a total assay volume of 10 μl. 4.5 nM human recombinant AdamTS-5 (R&D systems, Wiesbaden, Germany) and 30 nM biotinylated peptide […]-K(bio) (custom-made, Biosynthan, Berlin, Germany) as substrate were incubated in a total volume of 6 μl (100 mM Tris/HCl, 150 mM NaCl, 10 mM CaCl2, 0.05% Brij®-35, 1% DMSO, 0.084% BSA, pH 7.5) in the absence or presence of the test compound (10 dilution concentrations) for 180 min at 37° C. The reaction was stopped and the first detection step performed by the addition of 2 μl detection solution 1 (48 mM EDTA, 8 nM aggrecan antibody N-term neoepitope ARG, mouse monoclonal BC3 antibody (MDBioproducts, Egg, Switzerland), 100 μg/ml Streptavidin Alphascreen® donor beads (Perkin Elmer, Rodgau, Germany) in 100 mM Tris/HCl, 150 mM NaCl, 0.05% Brij®-35, 0.1% BSA, pH 7.5). After an one-hour incubation at 37° C. 2 μl of the second detection solution (25 μg/ml anti-mouse AlphaLisa® acceptor beads (Perkin Elmer, Rodgau, Germany) in 100 mM Tris/HCl, 150 mM NaCl, 0.05% Brij®-35, 0.1% BSA, pH 7.5 were added. The plates were incubated for […] in the dark.
The AlphaScreen signal was measured with an Envision multimode reader (Perkin Elmer LAS Germany GmbH) with the Alphascreen protocol from Perkin Elmer (laser mode) emission wavelength 570 nm. The full value used was the inhibitor-free reaction. For the zero value a pharmacological reference was used. The inhibitory values (IC50) for the compounds were determined using either the program Symyx Assay Explorer® or Condosseo® from GeneData.

[3] = tested on: carrageenan-induced inflammation of rat knee joint; experiment: Investigation of the anti-hyperalgesic effect in animals (carrageenan injected intra-articularly into rat knee joint); format: in vivo; settings: intra-articular administration 30 minutes before CAR
Protocol: In order to induce an inflammation reaction, a carrageenan solution (CAR, 1%, 50 μl) was injected intra-articularly on one side into a rat knee joint. The uninjected side was used for control purposes. Six animals per group were used. The […] was determined by means of a micrometer screw (medial-lateral on the knee joint), and the thermal hyperalgesia was determined by means of a directed infrared light source by the Hargreaves method (Hargreaves et al., 1988) on the sole of the foot. Since the site of inflammation (knee joint) is different from the site of measurement (paw sole), use is made here of the term secondary thermal hyperalgesia, the mechanism of which is of importance for the discovery of effective analge-sics.
Experimental description of thermal hyperalgesia (Hargreaves test): the experimental animal is placed in a plastic chamber on a quartz sheet. Before testing, the experimental animal is firstly given about 5-15 minutes time to familiarise itself with the environment. […] Light reflected by the paw is recorded as long as the experimental animal sits still. Withdrawal of the paw interrupts this reflection, after which the infrared light source is switched off and the time from switching on to switching off is recorded. […]

Structure (SMILES) | solubility (Solubility pH7.4) [µg/mL] | IC50 [2] [nM] | IC50 [1] [nM] | CAR-induced swelling ([3]; rat knee joint, TAC 10 μg/joint) | thermal hyperalgesia (Hargreaves test) ([3]; rat, difference in withdrawal times between inflamed and non-inflamed paw)
C[C@@H](C[C@H](NC(=O)c1ccc(-c2ccccc2)cc1)C(=O)NC(C)(C)Cc1ccc(F)cc1)C(=O)O [Compound 5, (2S,4S)-4-[(Biphenyl-4-carbonyl)-amino]-4-[2-(4-fluoro-phenyl)-1,1-dimethyl-ethylcarbamoyl]-2-methyl-butyric acid] | 677 (≈ 1380 µM) | 85 | 1800 | – | –
C[C@]12C=CC(=O)C=C1CC[C@H]1[C@@H]3C[C@@H](O)[C@](O)(C(=O)CO)[C@@]3(C)C[C@H](O)[C@@]12F [TAC, Triamcinolone, reference compound] | – | – | – | capable of reducing the CAR-induced swelling | –
CC[C@H](C)[C@H](NC(=O)C[C@H](N)[C@H](Cc1ccccc1)NC(=O)[C@@H](NC(=O)[C@H](CC(C)C)NC(=O)CC(C)C)C(C)C)C(=O)N[C@H](C(=O)O)C(C)C [specific DDR2 inhibitor, (S)-2-[(2S,3S)-2-((3S,4S)-3-amino-4-{(S)-3-methyl-2-[(S)-4-methyl-2-(3-methyl-butyrylamino)pentanoylamino]butyrylamino}-5-phenylpentanoylamino)-3-methylpentanoylamino]-3-methylbutyric acid] (Isovaleryl-LV[X1]IV-OH) | – | – | – | – | able to reduce the extent of thermal hyperalgesia as a function of the dose

Second part, led by results:

solubility (Solubility pH7.4) [µg/mL] | IC50 [2] [nM] | Structure (SMILES) | IC50 [1] [nM] | CAR-induced swelling ([3]; rat knee joint, TAC 10 μg/joint) | thermal hyperalgesia (Hargreaves test) ([3]; rat, difference in withdrawal times between inflamed and non-inflamed paw)
157 (≈ 303 µM) | 170 | CCC[C@@H](C[C@H](NC(=O)c1ccc(-c2ccccc2)cc1)C(=O)NC(C)(C)Cc1ccc(F)cc1)C(=O)O [Compound 7] | 1000 | – | –
838 (≈ 1610 µM) | 170 | COC[C@@H](C[C@H](NC(=O)c1ccc(-c2ccccc2)cc1)C(=O)NC(C)(C)Cc1ccc(F)cc1)C(=O)O [Compound 8] | 1200 | – | –
